Activity calls are given as the source filed them.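 Rule for the calls: active = maximal inhibition of the USP30 enzyme reaching 30% or more across the dose series; inactive = the rest.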
Each compound was assayed against Ubiquitin carboxyl-terminal hydrolase 30 (Homo sapiens) (UniProt Q70CQ3) (assay: inhibitors of ubiquitin-specific protease 30 deubiquitylating enzyme, concentration dependence, in vitro biochemical, validation of primary hits (AID 1645865)). Details: purified USP30, Ub-rhodamine cleavage, fluorescence, 2 h.
Ubiquitin carboxyl-terminal hydrolase 30 (Homo sapiens), sequence (Q70CQ3 whole entry, looked up): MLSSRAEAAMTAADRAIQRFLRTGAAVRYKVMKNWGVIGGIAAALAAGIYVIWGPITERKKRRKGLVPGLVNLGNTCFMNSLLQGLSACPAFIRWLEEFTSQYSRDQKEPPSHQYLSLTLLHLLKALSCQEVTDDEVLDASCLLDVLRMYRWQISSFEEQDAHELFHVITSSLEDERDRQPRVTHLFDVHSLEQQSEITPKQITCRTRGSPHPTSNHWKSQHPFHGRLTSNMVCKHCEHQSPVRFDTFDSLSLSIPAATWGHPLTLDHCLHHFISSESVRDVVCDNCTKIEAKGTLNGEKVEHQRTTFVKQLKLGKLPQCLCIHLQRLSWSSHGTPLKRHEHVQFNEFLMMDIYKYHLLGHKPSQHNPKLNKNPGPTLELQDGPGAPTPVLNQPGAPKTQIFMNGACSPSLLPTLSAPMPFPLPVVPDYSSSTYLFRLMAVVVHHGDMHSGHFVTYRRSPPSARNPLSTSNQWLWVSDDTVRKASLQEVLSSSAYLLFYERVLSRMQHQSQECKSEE

SMILES	IC50
COc1ccc(CCNC(=O)CSc2cn(CCNC(=O)c3ccc(F)cc3)c3ccccc23)cc1OC	19.9 µM
Cc1nnc(NC(=O)C2CCN(c3ccc(S(N)(=O)=O)cc3[N+](=O)[O-])CC2)o1	40.9 µM
CCc1ccccc1NC(=O)c1cc(-c2ccccn2)n[nH]1	24 µM
COc1cccc(-n2c(=O)[nH]c3c(C(N)=O)nc(-c4ccc(OCc5ccccc5)cc4)nc32)c1	> 50 µM (inactive)
O=C(CN1C(=O)C2CCCC2=Nc2ccccc21)Nc1ccc(F)cc1F (configuration not stated)	36.4 µM
Cn1c(=O)c2c(nc3n(-c4ccccc4F)c(-c4ccccc4)cn23)n(C)c1=O	> 50 µM (inactive)
CC(C(=O)NCc1ccc2c(c1)OCO2)N1CCN(c2ccc(O)cc2)CC1 (configuration not stated)	> 50 µM (inactive)
Cc1ccc(-c2nc(-c3ccccc3)c(S(=O)(=O)CC(=O)Nc3ccc(C)c(C)c3)[nH]2)cc1	> 50 µM (inactive)
CN(C)S(=O)(=O)c1ccc(N2CCCC2)c(C(=O)Nc2ccc(-c3cn4ccsc4n3)cc2)c1	> 50 µM (inactive)
CCOc1ccccc1C(=O)Oc1ccc2c(C)cc(=O)oc2c1	23.1 µM
CC(C)CCN1C(=O)C2C(C(=O)Nc3ccc(Oc4ccccc4)cc3)C3C=CC2(O3)C1C(=O)NC1CCCCC1 (configuration not stated)	32.5 µM
CCC(C)Oc1cccc(C(=O)Nc2ccc(CN3CCOCC3)cc2)c1 (configuration not stated)	> 50 µM (inactive)
COCCNC(=O)c1ccn(-c2ccc3ccc(-c4cnn(C)c4)cn23)n1	> 50 µM (inactive)
COc1ccc(-n2nnc(C(=O)Nc3ccccc3)c2N)cc1	> 50 µM (inactive)
COc1ccc(C(=O)Nc2sc3c(c2C(=O)NCc2cccnc2)CCCC3)cc1	4.43 µM
CCCC(=O)Nc1nc2ccc(CCC(=O)NCc3ccc(F)cc3)cc2s1	34.1 µM
Cc1cccc(NC(=O)c2nn(C)c3ccccc3c2=O)c1	24.6 µM
Cc1cccc(NC(=O)CSc2nnc(-c3n[nH]c4c3CCC4)n2N)c1	25.6 µM
COc1cc(C#N)c(NC(=NCc2ccc(F)cc2)SC)cc1OC	20.5 µM
CCCCc1nc2sc3c(SCC(=O)Nc4cccc(C)c4)ncnc3c2c2c1CCC2	> 50 µM (inactive)
O=C(NCc1ccc(Br)cc1)c1ccc(-c2cccnc2)nc1	30.3 µM

SMILES	IC50
CC(C)Cc1cc(-c2nnc3sc(-c4ccco4)nn23)n[nH]1	> 50 µM (inactive)
CC(C)c1cc2c(c(O)c1O)[C@@]13CCCC(C)(C)[C@@H]1C[C@@H]2OC3=O	26.6 µM
O=C(CCCn1c(=O)c2ccccc2n(CC(=O)NCc2ccccc2Cl)c1=O)NCc1ccc2c(c1)OCO2	1.69 µM
Cc1nn(C)c2c1[C@@H](c1ccc(F)c(Br)c1)[C@H](NC(=O)c1ccccc1)C(=O)N2	> 50 µM (inactive)
COc1ccc(C)cc1NC(=O)C1CC(=O)Nc2nc(SCc3ccccc3)nn21 (configuration not stated)	15.7 µM
O=C1CC(O)C(O)c2cccc(O)c21 (configuration not stated)	> 50 µM (inactive)
O=c1c2ccccc2c(-c2nc(-c3ccncc3)no2)cn1-c1ccccc1	2.54 µM
Cn1c(-c2nnc(SCC(=O)Nc3ccccc3F)o2)cc2ccccc21	14 µM
CCc1ccc(NC(=O)Cc2nnc(-c3ccc4ncccc4c3)o2)cc1	28.4 µM
COc1ccc(CCNC(=O)c2cc(C3CC3)nc3c2cnn3C(C)C)cc1	> 50 µM (inactive)
CCOc1ccc(-c2noc(-c3nn(-c4cccc(OC)c4)ccc3=O)n2)cc1	3.45 µM
COc1ccc(-n2c(=O)c(CCC(=O)O)nc3ccccc32)cc1	> 50 µM (inactive)
CCn1c(SCc2cccc(C)c2)nnc1-c1cnccn1	> 50 µM (inactive)
O=C(CCc1nnc2n(Cc3ccccc3Cl)c(=O)c3ccccc3n12)NCc1ccccn1	25.5 µM
Cc1c(Cl)cccc1NC(=O)Cn1ccc2ccccc2c1=O	3.03 µM
Cc1ncncc1C(=O)N1CCCC(C)(c2ncc(Cc3cccc(F)c3)o2)C1 (configuration not stated)	> 50 µM (inactive)
COc1ccc(-c2cc(C(C)=O)c(C)n2CCC(=O)Nc2ccc(OC)cc2OC)cc1	32.2 µM
CC1CC(=O)c2c(cc3c(-c4c(O)cc(O)c5c(O)c6c(cc45)OC(C)CC6=O)c(O)cc(O)c3c2O)O1 (configuration not stated)	> 50 µM (inactive)
O=C(Nc1nc2ccccc2s1)c1ccc2c(c1)C(=O)N(Cc1cccnc1)C2=O	2.19 µM
Cc1cc(C(=O)N2CCOC3(CC=CCN(CCc4ccccc4)C3=O)C2)n2nccc2n1 (configuration not stated)	> 50 µM (inactive)
COCCNC(=O)Cn1c(=O)n(Cc2ccccc2)c(=O)c2c3c(sc21)CCC3	31.7 µM

From PubChem BioAssay AID1645865 (Buhrlage Lab, Dana-Farber Cancer Institute and Novartis …, 2021)
